Measured values as given in ChEMBL document CHEMBL6177997, “Design, Synthesis, and Evaluation of Novel ROCK Inhibitors for Glaucoma Treatment: Insights into In Vitro and In Vivo Efficacy and Safety” (J Med Chem, 2025).

These molecules were tested against Rho-associated protein kinase 2 (Homo sapiens, UniProt O75116) (assay: Inhibition of ROCK2 (unknown origin) incubated for 40 mins in presence of ATP by ADP-glo assay). Settings: not given.
Rho-associated protein kinase 2, sequence (O75116 whole entry): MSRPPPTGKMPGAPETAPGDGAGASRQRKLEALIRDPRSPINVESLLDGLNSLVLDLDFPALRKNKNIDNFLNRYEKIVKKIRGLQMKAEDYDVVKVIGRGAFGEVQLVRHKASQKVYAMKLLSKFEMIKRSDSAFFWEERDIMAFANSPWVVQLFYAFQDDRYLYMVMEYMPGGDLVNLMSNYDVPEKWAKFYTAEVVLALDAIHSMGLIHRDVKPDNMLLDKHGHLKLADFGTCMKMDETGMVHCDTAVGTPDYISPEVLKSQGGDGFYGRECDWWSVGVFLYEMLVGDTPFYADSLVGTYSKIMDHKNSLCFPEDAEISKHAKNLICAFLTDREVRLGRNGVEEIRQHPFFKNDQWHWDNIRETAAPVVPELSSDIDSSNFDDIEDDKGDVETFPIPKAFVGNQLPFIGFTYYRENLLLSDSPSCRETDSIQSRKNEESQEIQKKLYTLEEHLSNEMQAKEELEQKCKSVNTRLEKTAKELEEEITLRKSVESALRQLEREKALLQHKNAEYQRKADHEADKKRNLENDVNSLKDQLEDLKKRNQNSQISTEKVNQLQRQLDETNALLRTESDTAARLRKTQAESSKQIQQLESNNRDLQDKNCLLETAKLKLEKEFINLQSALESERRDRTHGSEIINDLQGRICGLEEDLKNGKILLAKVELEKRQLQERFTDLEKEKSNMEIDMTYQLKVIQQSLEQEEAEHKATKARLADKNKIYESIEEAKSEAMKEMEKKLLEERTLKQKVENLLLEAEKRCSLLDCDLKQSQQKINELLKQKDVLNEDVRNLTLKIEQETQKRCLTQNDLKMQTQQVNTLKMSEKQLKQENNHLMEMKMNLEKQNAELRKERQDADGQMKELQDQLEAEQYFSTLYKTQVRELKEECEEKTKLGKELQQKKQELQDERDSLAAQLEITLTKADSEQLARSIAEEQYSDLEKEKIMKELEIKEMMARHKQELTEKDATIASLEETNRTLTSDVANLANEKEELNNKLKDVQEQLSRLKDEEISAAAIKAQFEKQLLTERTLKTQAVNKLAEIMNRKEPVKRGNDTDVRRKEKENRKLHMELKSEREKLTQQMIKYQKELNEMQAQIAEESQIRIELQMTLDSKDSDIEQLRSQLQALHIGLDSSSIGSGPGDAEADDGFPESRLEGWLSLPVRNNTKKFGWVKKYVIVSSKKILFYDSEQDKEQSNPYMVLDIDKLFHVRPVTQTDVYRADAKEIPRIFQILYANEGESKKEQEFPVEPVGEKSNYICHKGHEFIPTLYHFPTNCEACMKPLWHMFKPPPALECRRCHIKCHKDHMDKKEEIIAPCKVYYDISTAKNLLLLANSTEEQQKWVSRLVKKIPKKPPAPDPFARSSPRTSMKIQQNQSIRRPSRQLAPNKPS

IC50 [nM]	Structure (SMILES)
2110	O=C(C1CCCCC1)N1CCC(c2cc(-c3ccnc4[nH]ccc34)[nH]n2)CC1
1050	O=C(C1CCC1)N1CCC(c2cc(-c3ccnc4[nH]ccc34)[nH]n2)CC1
1070	O=C(C1CC1)N1CCC(c2cc(-c3ccnc4[nH]ccc34)[nH]n2)CC1
969	FC(F)(F)c1cccc(CN2CCC(c3cc(-c4ccnc5[nH]ccc45)[nH]n3)CC2)c1
433	O=C(Cc1ccccc1)N1CCC(c2cc(-c3ccnc4[nH]ccc34)[nH]n2)CC1
362	COc1ccc(C(=O)N2CCC(c3cc(-c4ccnc5[nH]ccc45)[nH]n3)CC2)cc1OC
118	COc1ccc(CN2CCC(c3cc(-c4ccnc5[nH]ccc45)[nH]n3)CC2)cc1
833	O=C(c1ccc(F)cc1)N1CCC(c2cc(-c3ccnc4[nH]ccc34)[nH]n2)CC1
468	CC(=O)c1ccc(C(=O)N2CCC(c3cc(-c4ccnc5[nH]ccc45)[nH]n3)CC2)cc1
939	O=C(c1ccc(C(F)(F)F)cc1)N1CCC(c2cc(-c3ccnc4[nH]ccc34)[nH]n2)CC1
823	CC(=O)c1cccc(CN2CCC(c3cc(-c4ccnc5[nH]ccc45)[nH]n3)CC2)c1
553	C=CC(=O)N1CCC(c2cc(-c3ccnc4[nH]ccc34)[nH]n2)CC1
305	COc1cccc(CC(=O)N2CCC(c3cc(-c4ccnc5[nH]ccc45)[nH]n3)CC2)c1
> 10000	Cc1ccc(S(=O)(=O)N2CCC(c3cc(-c4ccnc5[nH]ccc45)[nH]n3)CC2)cc1
390	COC(=O)c1cccc(CN2CCC(c3cc(-c4ccnc5[nH]ccc45)[nH]n3)CC2)c1
492	COc1ccc(C(=O)N2CCC(c3cc(-c4ccnc5[nH]ccc45)[nH]n3)CC2)cc1
338	Fc1cccc(CN2CCC(c3cc(-c4ccnc5[nH]ccc45)[nH]n3)CC2)c1
3880	O=C(C1CCCC1)N1CCC(c2cc(-c3ccnc4[nH]ccc34)[nH]n2)CC1
484	Cc1ccc(C(=O)N2CCC(c3cc(-c4ccnc5[nH]ccc45)[nH]n3)CC2)cc1

Structure (SMILES)	IC50 [nM]
O=S(=O)(F)N1CCC(c2cc(-c3ccnc4[nH]ccc34)[nH]n2)CC1	329

What follows are molecules tested against Rho-associated protein kinase 1 (Homo sapiens, UniProt Q13464) (assay: Inhibition of ROCK1 (unknown origin) incubated for 40 mins in presence of ATP by ADP-glo assay). Settings: not given.
Rho-associated protein kinase 1, sequence (Q13464 whole entry): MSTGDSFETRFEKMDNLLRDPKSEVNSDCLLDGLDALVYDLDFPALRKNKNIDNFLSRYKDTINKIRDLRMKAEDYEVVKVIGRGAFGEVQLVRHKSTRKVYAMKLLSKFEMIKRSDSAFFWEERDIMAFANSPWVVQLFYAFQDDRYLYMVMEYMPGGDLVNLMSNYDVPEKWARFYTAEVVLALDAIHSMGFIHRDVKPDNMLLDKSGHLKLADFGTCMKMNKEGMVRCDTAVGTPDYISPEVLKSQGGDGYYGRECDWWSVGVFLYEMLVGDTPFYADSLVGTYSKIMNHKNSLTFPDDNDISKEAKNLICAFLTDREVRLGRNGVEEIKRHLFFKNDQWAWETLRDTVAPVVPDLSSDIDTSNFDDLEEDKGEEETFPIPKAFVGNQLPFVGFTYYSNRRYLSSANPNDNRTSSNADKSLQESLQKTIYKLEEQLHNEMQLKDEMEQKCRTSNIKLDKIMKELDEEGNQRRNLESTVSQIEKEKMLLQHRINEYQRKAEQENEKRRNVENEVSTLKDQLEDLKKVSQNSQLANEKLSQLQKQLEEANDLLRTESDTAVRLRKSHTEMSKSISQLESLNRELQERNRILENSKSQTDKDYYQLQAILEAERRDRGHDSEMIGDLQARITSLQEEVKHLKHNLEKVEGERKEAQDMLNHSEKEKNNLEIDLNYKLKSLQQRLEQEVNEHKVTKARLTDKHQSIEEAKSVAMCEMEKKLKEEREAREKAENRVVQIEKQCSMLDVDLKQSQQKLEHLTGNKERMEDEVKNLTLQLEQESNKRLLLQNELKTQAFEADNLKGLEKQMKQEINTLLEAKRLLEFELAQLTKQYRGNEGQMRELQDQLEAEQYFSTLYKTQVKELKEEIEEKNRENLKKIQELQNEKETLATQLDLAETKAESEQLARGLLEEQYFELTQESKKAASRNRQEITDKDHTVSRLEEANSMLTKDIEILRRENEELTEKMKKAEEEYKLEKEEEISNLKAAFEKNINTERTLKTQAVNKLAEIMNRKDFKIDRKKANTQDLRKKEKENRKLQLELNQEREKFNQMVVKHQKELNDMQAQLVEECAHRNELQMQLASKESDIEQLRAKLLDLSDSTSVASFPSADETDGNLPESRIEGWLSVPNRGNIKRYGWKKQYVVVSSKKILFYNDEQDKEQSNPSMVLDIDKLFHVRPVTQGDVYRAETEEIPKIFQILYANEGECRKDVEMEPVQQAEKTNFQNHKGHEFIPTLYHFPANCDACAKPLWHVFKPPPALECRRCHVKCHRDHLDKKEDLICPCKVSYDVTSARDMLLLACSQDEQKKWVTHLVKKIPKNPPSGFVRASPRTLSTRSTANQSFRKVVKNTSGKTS

IC50 [nM]	Structure (SMILES)
1720	O=C(C1CCCCC1)N1CCC(c2cc(-c3ccnc4[nH]ccc34)[nH]n2)CC1
846	O=C(C1CCC1)N1CCC(c2cc(-c3ccnc4[nH]ccc34)[nH]n2)CC1
1010	O=C(C1CC1)N1CCC(c2cc(-c3ccnc4[nH]ccc34)[nH]n2)CC1
1180	FC(F)(F)c1cccc(CN2CCC(c3cc(-c4ccnc5[nH]ccc45)[nH]n3)CC2)c1
432	O=C(Cc1ccccc1)N1CCC(c2cc(-c3ccnc4[nH]ccc34)[nH]n2)CC1
696	COc1ccc(C(=O)N2CCC(c3cc(-c4ccnc5[nH]ccc45)[nH]n3)CC2)cc1OC
183	COc1ccc(CN2CCC(c3cc(-c4ccnc5[nH]ccc45)[nH]n3)CC2)cc1
821	O=C(c1ccc(F)cc1)N1CCC(c2cc(-c3ccnc4[nH]ccc34)[nH]n2)CC1
512	CC(=O)c1ccc(C(=O)N2CCC(c3cc(-c4ccnc5[nH]ccc45)[nH]n3)CC2)cc1
1160	O=C(c1ccc(C(F)(F)F)cc1)N1CCC(c2cc(-c3ccnc4[nH]ccc34)[nH]n2)CC1
895	CC(=O)c1cccc(CN2CCC(c3cc(-c4ccnc5[nH]ccc45)[nH]n3)CC2)c1
791	C=CC(=O)N1CCC(c2cc(-c3ccnc4[nH]ccc34)[nH]n2)CC1
350	COc1cccc(CC(=O)N2CCC(c3cc(-c4ccnc5[nH]ccc45)[nH]n3)CC2)c1
> 10000	Cc1ccc(S(=O)(=O)N2CCC(c3cc(-c4ccnc5[nH]ccc45)[nH]n3)CC2)cc1
570	COC(=O)c1cccc(CN2CCC(c3cc(-c4ccnc5[nH]ccc45)[nH]n3)CC2)c1
829	COc1ccc(C(=O)N2CCC(c3cc(-c4ccnc5[nH]ccc45)[nH]n3)CC2)cc1
295	Fc1cccc(CN2CCC(c3cc(-c4ccnc5[nH]ccc45)[nH]n3)CC2)c1
1980	O=C(C1CCCC1)N1CCC(c2cc(-c3ccnc4[nH]ccc34)[nH]n2)CC1
773	Cc1ccc(C(=O)N2CCC(c3cc(-c4ccnc5[nH]ccc45)[nH]n3)CC2)cc1

Structure (SMILES)	IC50 [nM]
O=S(=O)(F)N1CCC(c2cc(-c3ccnc4[nH]ccc34)[nH]n2)CC1	229

What follows are molecules tested against MAP kinase-interacting serine/threonine-protein kinase 2 (Homo sapiens) (UniProt Q9HBH9) (assay: Inhibition of MNK2 (unknown origin) at 5 uM preincubated for 10 mins followed by substrate addition and measured after 60 mins by ADP-glo kinase assay relative to control). Settings: time 70.0 min.
MAP kinase-interacting serine/threonine-protein kinase 2 (Homo sapiens), sequence (Q9HBH9 whole entry, looked up): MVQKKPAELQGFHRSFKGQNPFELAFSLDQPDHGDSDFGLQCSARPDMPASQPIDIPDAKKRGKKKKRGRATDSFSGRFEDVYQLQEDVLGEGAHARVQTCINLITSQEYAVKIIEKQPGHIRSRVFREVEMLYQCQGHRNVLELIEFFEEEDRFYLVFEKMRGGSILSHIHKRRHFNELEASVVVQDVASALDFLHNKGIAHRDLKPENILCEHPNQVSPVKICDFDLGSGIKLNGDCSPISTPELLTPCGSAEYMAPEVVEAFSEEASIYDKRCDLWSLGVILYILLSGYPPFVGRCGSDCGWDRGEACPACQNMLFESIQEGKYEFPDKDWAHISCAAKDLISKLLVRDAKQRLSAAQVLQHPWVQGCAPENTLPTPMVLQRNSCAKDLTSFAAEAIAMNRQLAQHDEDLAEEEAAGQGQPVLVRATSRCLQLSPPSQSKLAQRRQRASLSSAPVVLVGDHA

inhibition [%]	Structure (SMILES)
14.6	O=C(C1CCCCC1)N1CCC(c2cc(-c3ccnc4[nH]ccc34)[nH]n2)CC1
42.3	O=C(C1CCC1)N1CCC(c2cc(-c3ccnc4[nH]ccc34)[nH]n2)CC1
42.5	O=C(C1CC1)N1CCC(c2cc(-c3ccnc4[nH]ccc34)[nH]n2)CC1
57.2	FC(F)(F)c1cccc(CN2CCC(c3cc(-c4ccnc5[nH]ccc45)[nH]n3)CC2)c1
72.2	O=C(Cc1ccccc1)N1CCC(c2cc(-c3ccnc4[nH]ccc34)[nH]n2)CC1
59.7	COc1ccc(C(=O)N2CCC(c3cc(-c4ccnc5[nH]ccc45)[nH]n3)CC2)cc1OC
67.4	COc1ccc(CN2CCC(c3cc(-c4ccnc5[nH]ccc45)[nH]n3)CC2)cc1
47.4	O=C(c1ccc(F)cc1)N1CCC(c2cc(-c3ccnc4[nH]ccc34)[nH]n2)CC1
60.9	CC(=O)c1ccc(C(=O)N2CCC(c3cc(-c4ccnc5[nH]ccc45)[nH]n3)CC2)cc1
57.4	O=C(c1ccc(C(F)(F)F)cc1)N1CCC(c2cc(-c3ccnc4[nH]ccc34)[nH]n2)CC1
89	CC(=O)c1cccc(CN2CCC(c3cc(-c4ccnc5[nH]ccc45)[nH]n3)CC2)c1
61	C=CC(=O)N1CCC(c2cc(-c3ccnc4[nH]ccc34)[nH]n2)CC1
62.7	COc1cccc(CC(=O)N2CCC(c3cc(-c4ccnc5[nH]ccc45)[nH]n3)CC2)c1
6.9	Cc1ccc(S(=O)(=O)N2CCC(c3cc(-c4ccnc5[nH]ccc45)[nH]n3)CC2)cc1
70.9	COC(=O)c1cccc(CN2CCC(c3cc(-c4ccnc5[nH]ccc45)[nH]n3)CC2)c1
54.7	COc1ccc(C(=O)N2CCC(c3cc(-c4ccnc5[nH]ccc45)[nH]n3)CC2)cc1
76.8	Fc1cccc(CN2CCC(c3cc(-c4ccnc5[nH]ccc45)[nH]n3)CC2)c1
44.4	O=C(C1CCCC1)N1CCC(c2cc(-c3ccnc4[nH]ccc34)[nH]n2)CC1
52.2	Cc1ccc(C(=O)N2CCC(c3cc(-c4ccnc5[nH]ccc45)[nH]n3)CC2)cc1

Structure (SMILES)	inhibition [%]
O=S(=O)(F)N1CCC(c2cc(-c3ccnc4[nH]ccc34)[nH]n2)CC1	86.7

Each molecule was assayed against MAP kinase-interacting serine/threonine-protein kinase 1 (Homo sapiens, UniProt Q9BUB5) (assay: Inhibition of MNK1 (unknown origin) at 5 uM preincubated for 10 mins followed by substrate addition and measured after 60 mins by ADP-glo kinase assay relative to control). Settings: time 70.0 min.
MAP kinase-interacting serine/threonine-protein kinase 1, sequence (Q9BUB5 whole entry, looked up): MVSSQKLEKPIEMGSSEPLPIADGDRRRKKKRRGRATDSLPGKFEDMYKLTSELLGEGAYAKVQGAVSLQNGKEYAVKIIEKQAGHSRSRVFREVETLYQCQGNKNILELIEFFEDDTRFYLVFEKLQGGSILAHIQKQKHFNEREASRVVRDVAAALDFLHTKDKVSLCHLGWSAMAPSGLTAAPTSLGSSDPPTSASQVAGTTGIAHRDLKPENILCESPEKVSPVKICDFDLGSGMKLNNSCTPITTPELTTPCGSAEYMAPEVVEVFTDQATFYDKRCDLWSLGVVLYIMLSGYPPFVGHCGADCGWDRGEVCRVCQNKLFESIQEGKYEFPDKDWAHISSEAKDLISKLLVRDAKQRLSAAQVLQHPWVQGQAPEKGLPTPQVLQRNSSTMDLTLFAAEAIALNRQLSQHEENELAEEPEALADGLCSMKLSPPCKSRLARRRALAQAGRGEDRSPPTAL

inhibition [%]	Structure (SMILES)
20.8	O=C(C1CCCCC1)N1CCC(c2cc(-c3ccnc4[nH]ccc34)[nH]n2)CC1
39.9	O=C(C1CCC1)N1CCC(c2cc(-c3ccnc4[nH]ccc34)[nH]n2)CC1
40.9	O=C(C1CC1)N1CCC(c2cc(-c3ccnc4[nH]ccc34)[nH]n2)CC1
50.9	FC(F)(F)c1cccc(CN2CCC(c3cc(-c4ccnc5[nH]ccc45)[nH]n3)CC2)c1
49.7	O=C(Cc1ccccc1)N1CCC(c2cc(-c3ccnc4[nH]ccc34)[nH]n2)CC1
73	COc1ccc(C(=O)N2CCC(c3cc(-c4ccnc5[nH]ccc45)[nH]n3)CC2)cc1OC
61.5	COc1ccc(CN2CCC(c3cc(-c4ccnc5[nH]ccc45)[nH]n3)CC2)cc1
61.1	O=C(c1ccc(F)cc1)N1CCC(c2cc(-c3ccnc4[nH]ccc34)[nH]n2)CC1
71.7	CC(=O)c1ccc(C(=O)N2CCC(c3cc(-c4ccnc5[nH]ccc45)[nH]n3)CC2)cc1
81.3	O=C(c1ccc(C(F)(F)F)cc1)N1CCC(c2cc(-c3ccnc4[nH]ccc34)[nH]n2)CC1
69.2	CC(=O)c1cccc(CN2CCC(c3cc(-c4ccnc5[nH]ccc45)[nH]n3)CC2)c1
56	C=CC(=O)N1CCC(c2cc(-c3ccnc4[nH]ccc34)[nH]n2)CC1
41.6	COc1cccc(CC(=O)N2CCC(c3cc(-c4ccnc5[nH]ccc45)[nH]n3)CC2)c1
6.4	Cc1ccc(S(=O)(=O)N2CCC(c3cc(-c4ccnc5[nH]ccc45)[nH]n3)CC2)cc1
61.6	COC(=O)c1cccc(CN2CCC(c3cc(-c4ccnc5[nH]ccc45)[nH]n3)CC2)c1
75.3	COc1ccc(C(=O)N2CCC(c3cc(-c4ccnc5[nH]ccc45)[nH]n3)CC2)cc1
69.9	Fc1cccc(CN2CCC(c3cc(-c4ccnc5[nH]ccc45)[nH]n3)CC2)c1
47.5	O=C(C1CCCC1)N1CCC(c2cc(-c3ccnc4[nH]ccc34)[nH]n2)CC1
74.4	Cc1ccc(C(=O)N2CCC(c3cc(-c4ccnc5[nH]ccc45)[nH]n3)CC2)cc1

Structure (SMILES)	inhibition [%]
O=S(=O)(F)N1CCC(c2cc(-c3ccnc4[nH]ccc34)[nH]n2)CC1	68.3
